Consider 17 compounds from PubChem BioAssay AID296 (DTP/NCI, 2004).

The subject of the test is MX-1 breast xenograft, nude mice, tumor weight T/C. Nature of the test: NCI In Vivo Anticancer Drug Screen. Data for tumor model Human Mammary Carcinoma MX-1 Xenograft (intrarenal inoculation) in NU/NU Swiss (nude) mice. As to conditions: endpoint: mean tumor weight change, higher = larger tumour. The method in brief:
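Read-out: treated (T) over vehicle control (C) ratio of survival or tumor size. Dosing in animals carrying the transplanted tumor.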
On the technique in general: In xenograft studies the graft and the host belong to different species.

Setting [1] is: dose: 150.0 mg/kg/injection, schedule: Q04DX003 (sc), vehicle: saline.
The mark [2] stands for this setting: dose: 50.0 mg/kg/injection, schedule: Q01DX010 (sc), vehicle: water.
Where [3] appears, read: dose: 200.0 mg/kg/injection, schedule: Q04DX003 (sc), vehicle: suspension in saline.

Structures are written as SMILES. Several values for one entry are separate records, joined by “and”; a condition that tells them apart may be missing. Identical values can stand only once. Inconclusive results are not listed.

Turning to `CC[C@@]1(O)C(=O)OCc2c1cc1n(c2=O)Cc2cc3ccccc3nc2-1`, the T/C by setting is: (dose: 1.0 mg/kg/injection, schedule: Q04DX003 (sc), vehicle: saline with Tween-80) 100 % of control; (dose: 2.0 mg/kg/injection, schedule: Q04DX003 (sc), vehicle: saline with Tween-80) 58 % of control; (dose: 4.0 mg/kg/injection, schedule: Q04DX003 (sc), vehicle: saline with Tween-80) 23 % of control; (dose: 8.0 mg/kg/injection, schedule: Q04DX003 (sc), vehicle: saline with Tween-80) 11 % of control.
In the case of `N=c1ccn2c(n1)OC1C(O)C(CO)OC12` (configuration not stated), the T/C under setting [1] is 102 % of control; the T/C (dose: 300.0 mg/kg/injection, schedule: Q04DX003 (sc), vehicle: saline) is 84 % of control; the T/C (dose: 400.0 mg/kg/injection, schedule: Q04DX003 (sc), vehicle: saline) is 95 % of control; the T/C (dose: 600.0 mg/kg/injection, schedule: Q04DX003 (sc), vehicle: saline) was 42 % of control; the T/C (dose: 600.0 mg/kg/injection, schedule: Q04DX003 (sc), vehicle: suspension in saline) is 70 % of control; the T/C (dose: 800.0 mg/kg/injection, schedule: Q04DX003 (sc), vehicle: saline) was 69 % of control. The T/C by setting is: (dose: 1200.0 mg/kg/injection, schedule: Q04DX003 (sc), vehicle: saline) 50 % of control; (dose: 1200.0 mg/kg/injection, schedule: Q04DX003 (sc), vehicle: suspension in saline) 55 % of control; (dose: 1600.0 mg/kg/injection, schedule: Q04DX003 (sc), vehicle: saline) 64 % of control; (dose: 2400.0 mg/kg/injection, schedule: Q04DX003 (sc), vehicle: suspension in saline) 70 % of control.
`C[C@@H]1C[C@@H]([C@H](O)CC2CC(=O)NC(=O)C2)C(=O)[C@@H](C)C1`: the T/C is 105 % of control (dose: 37.5 mg/kg/injection, schedule: Q04DX003 (sc), vehicle: saline); 69 % of control (dose: 75.0 mg/kg/injection, schedule: Q04DX003 (sc), vehicle: saline); 97 % of control under setting [1].
With `Cn1cnc([N+](=O)[O-])c1[Se]c1nc(N)nc2nc[nH]c12`, the T/C under setting [2] is 71 % of control.
In the case of `Cc1ccc(NCC2(/N=C/c3ccccc3)OC(CO)C(O)C2O)cc1` (configuration not stated), the T/C runs as follows: (dose: 200.0 mg/kg/injection, schedule: Q04DX003 (sc), vehicle: Klucel (hydroxypropylcellulose) (HPC)) 109 % of control; (dose: 400.0 mg/kg/injection, schedule: Q04DX003 (sc), vehicle: Klucel (hydroxypropylcellulose) (HPC)) 124 % of control; (dose: 800.0 mg/kg/injection, schedule: Q04DX003 (sc), vehicle: Klucel (hydroxypropylcellulose) (HPC)) 94 % of control; (dose: 1600.0 mg/kg/injection, schedule: Q04DX003 (sc), vehicle: Klucel (hydroxypropylcellulose) (HPC)) 101 % of control.
For `COc1cc2c(c(OC)c1OC)-c1ccc(OC)c(=O)cc1[C@@H](NC(=O)CCl)CC2`, the T/C runs as follows: (dose: 1.25 mg/kg/injection, schedule: Q04DX003 (sc), vehicle: saline with Tween-80) 90 % of control; (dose: 2.5 mg/kg/injection, schedule: Q04DX003 (sc), vehicle: saline with Tween-80) 64 % of control; (dose: 5.0 mg/kg/injection, schedule: Q04DX003 (sc), vehicle: saline with Tween-80) 21 % of control; (dose: 10.0 mg/kg/injection, schedule: Q04DX003 (sc), vehicle: saline with Tween-80) -92 % of control.
Take `CC1=C(/C=C/C(C)=C/C=C/C(C)=C/CO)C(C)(C)CCC1`: the T/C runs as follows: (dose: 200.0 mg/kg/injection, schedule: Q04DX003 (sc), vehicle: saline with Tween-80) 89 % of control; (dose: 400.0 mg/kg/injection, schedule: Q04DX003 (sc), vehicle: saline with Tween-80) 112 % of control; (dose: 800.0 mg/kg/injection, schedule: Q04DX003 (sc), vehicle: saline with Tween-80) 84 % of control; (dose: 1600.0 mg/kg/injection, schedule: Q04DX003 (sc), vehicle: saline with Tween-80) 96 % of control.
Take `O=C1C(=O)c2ccccc2C(O)=C1CC=C(Cl)Cl`: the T/C is 68 % of control (dose: 25.0 mg/kg/injection, schedule: Q01DX010 (sc), vehicle: water); 110 % of control under setting [2]; 109 % of control (dose: 100.0 mg/kg/injection, schedule: Q01DX010 (sc), vehicle: water); 106 % of control (dose: 200.0 mg/kg/injection, schedule: Q01DX010 (sc), vehicle: water).
With `Cc1cc(NCCCN(C)C)c2ccc3c(ccc4c(NCCCN(C)C)cc(C)nc43)c2n1`, the T/C is, setting by setting: (dose: 9.38 mg/kg/injection, schedule: Q04DX003 (sc), vehicle: saline with Tween-80) 77 % of control; (dose: 18.75 mg/kg/injection, schedule: Q04DX003 (sc), vehicle: saline with Tween-80) 65 % of control.
Regarding `Cc1ccc2nc(-c3ccc4nc(-c5ccc(N=Nc6ccc(-c7nc8ccc(-c9nc%10ccc(C)c(S(=O)(=O)O)c%10s9)cc8s7)cc6)cc5)sc4c3)sc2c1S(=O)(=O)O`, the T/C runs as follows: under setting [3], 90 % of control; (dose: 400.0 mg/kg/injection, schedule: Q04DX003 (sc), vehicle: suspension in saline) 90 % of control.
Consider `C1CN(P2(N3CC3)=NP(N3CC3)(N3CC3)=NP(N3CC3)(N3CC3)=N2)CCO1` (configuration not stated), for which the T/C reads like this: (dose: 12.5 mg/kg/injection, schedule: Q04DX003 (sc), vehicle: saline) 36 % of control; (dose: 25.0 mg/kg/injection, schedule: Q04DX003 (sc), vehicle: saline) 9 % of control; (dose: 50.0 mg/kg/injection, schedule: Q04DX003 (sc), vehicle: saline) -77 % of control and -68 % of control (2×); (dose: 100.0 mg/kg/injection, schedule: Q04DX003 (sc), vehicle: saline) -93 % of control.
As to `C=C1C(=O)OCC1C(=O)O` (configuration not stated), the T/C reads like this: (dose: 50.0 mg/kg/injection, schedule: Q04DX003 (sc), vehicle: suspension in saline) 74 % of control; (dose: 100.0 mg/kg/injection, schedule: Q04DX003 (sc), vehicle: suspension in saline) 94 % of control; under setting [3], 50 % of control.
As to `CC1=NN(c2cccc(S(=O)(=O)O)c2)C(=O)C1N=Nc1cc(Cl)cc(S(=O)(=O)O)c1O.CC1=NN(c2cccc(S(=O)(=O)O)c2)C(=O)C1N=Nc1cc(Cl)cc(S(=O)(=O)O)c1O.[Cr]` (configuration not stated), the T/C was 151 % of control (dose: 150.0 mg/kg/injection, schedule: Q04DX003 (ip), vehicle: saline); 94 % of control (dose: 300.0 mg/kg/injection, schedule: Q04DX003 (ip), vehicle: saline); 50 % of control (dose: 600.0 mg/kg/injection, schedule: Q04DX003 (ip), vehicle: saline).
`Cc1ccc(NN=O)nc1`: the T/C runs as follows: (dose: 18.7 mg/kg/injection, schedule: Q04DX003 (ip), vehicle: water) 16 % of control; (dose: 37.5 mg/kg/injection, schedule: Q04DX003 (ip), vehicle: water) 8 % of control.
With `NC(=O)c1cn(C2OC(CO)C(O)C2O)c2ncnc(N)c12` (configuration not stated), the T/C reads like this: (dose: 1.5 mg/kg/injection, schedule: Q04DX003 (sc), vehicle: saline) 77 % of control; (dose: 3.0 mg/kg/injection, schedule: Q04DX003 (sc), vehicle: saline) 61 % of control; (dose: 6.0 mg/kg/injection, schedule: Q04DX003 (sc), vehicle: saline) 40 % of control.
As to `O=C(NO)c1ccc(O)c(O)c1`, the T/C is, setting by setting: (dose: 200.0 mg/kg/injection, schedule: Q04DX003 (sc), vehicle: other) 26 % of control; (dose: 200.0 mg/kg/injection, schedule: Q04DX003 (sc), vehicle: water) 104 % of control; (dose: 400.0 mg/kg/injection, schedule: Q04DX003 (sc), vehicle: other) 60 % of control; (dose: 400.0 mg/kg/injection, schedule: Q04DX003 (sc), vehicle: water) 87 % of control; (dose: 800.0 mg/kg/injection, schedule: Q04DX003 (sc), vehicle: other) 18 % of control; (dose: 800.0 mg/kg/injection, schedule: Q04DX003 (sc), vehicle: water) 78 % of control. The T/C (dose: 1200.0 mg/kg/injection, schedule: Q04DX003 (sc), vehicle: distilled water + Tween-80) is 77 % of control.
On to `C=C(C)[C@]12CC(C)C34OC(/C=C\C=C\CCCCCCCCC)(O[C@@H]1[C@@H]3[C@@H]1O[C@]1(CO)[C@@H](O)[C@]1(O)C(=O)C(C)=C[C@@H]41)O2` (some centres not stated), for which the T/C reads like this: (dose: 6.0 mg/kg/injection, schedule: Q04DX003 (sc), vehicle: distilled water + alcohol) 102 % of control; (dose: 12.0 mg/kg/injection, schedule: Q04DX003 (sc), vehicle: distilled water + alcohol) 95 % of control.
